One test has as its target ALK I1171N/D1203N (Homo sapiens (Human), UniProt Q9UM73, D1203N/I1171N). As to the kind of experiment: Biochemical kinase assay, ALK I1171N/D1203N. The following applies: apparent inhibitory constant, kinase domain, Morrison equation; read-out: ALK-I1171N-D1203N Ki^app. As to the method: (§1) First, 250 nL of compound dissolved in DMSO (100-fold of the desired concentration) was dispensed into a 384-well plate. A 12.5 μL substrate solution containing ATP (2 mM) and fluorogenic phosphorylation substrate AQT0101 ([…] for ALK and ROS, AssayQuant) or AQT0104 (26 μM for TRKB, AssayQuant) in buffer (50 mM HEPES pH 7.5, […], 0.5 mM EGTA, 10 mM MgCl2) was added and mixed thoroughly. Then, a 12.5 μL kinase solution containing ALK (1.5 nM, Carna, 08-518), ALK I1171N/D1203N (4 nM, SignalChem, custom-made), ROS1 (0.6 nM, Carma, 08-163), ROS1-G2032R (0.5 nM, SignalChem, R14-121BG), or TRKB-wt (1.5 nM, SignalChem, N17-11G) kinase domains in buffer ([…] pH 7.5, 0.01% Brij-[…], 0.4 mg/mL BSA, 0.5 mM EGTA, and 10 mM MgCl2) was added and mixed thoroughly. The plate was sealed and read by SpectraMax Paradigm at λ=485 nm every 2 minutes for 120 minutes at 30° C. Initial rates of reaction (v) were calculated from the change in fluorescence intensity over time during the initial, linear portion of the reaction. Finally, apparent inhibitory constants (Ki^app) were determined from regression of v and I (inhibitor concentration) to Morrison Equation (E=enzyme concentration): […]
(§2) Compound potency can be interpreted by binning Ki^app values against the targets: bin A for high potency, Ki^app<50 nM; bin B for medium potency, 50 nM≤Ki^app<500 nM; and bin C for low potency, Ki^app≥500 nM. […] “nd” means not determined.

The target of another test is Ba/F3 ETV6-TRKB (Homo sapiens, UniProt Q16620). Put plainly: Ba/F3 cell proliferation assay, ETV6-TRKB. The following applies: Ba/F3 stable cells, 72 hours, CellTiter-Glo; read-out: ETV6-TRKB IC50. The test is classed as cell-based. The procedure, abridged:
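Ba/F3 cells retrovirally transduced with ETV6-TRKB and selected for IL-3-independent growth with puromycin were treated with 3-fold compound dilutions for 72 h. Viability read by CellTiter-Glo luminescence; IC50 from percent inhibition by four-parameter logistic fit.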
For orientation: Cellular ATP, detected with luciferase, serves as a proxy for viable cell number.

The target of test [1] is Ba/F3 EML4-ALK v1 I1171N/D1203N (Homo sapiens (Human), UniProt Q9HC35+Q9UM73, D1203N/I1171N). As to the kind of experiment: Ba/F3 cell proliferation assay, EML4-ALK v1 I1171N/D1203N. The class given is cell-based. To be noted: for IC50: Ba/F3 stable cells, 72 hours, CellTiter-Glo; for ETV6-TRKB / EML4-ALK v1 I1171N/D1203N / Selectivity for Ba/F3 EML4-ALK v1 I1171N-D1203N IC50 over Ba/F3 ETV6-TRKB IC50: TRKB selectivity, ratio of Ba/F3 IC50 values; for Selectivity for Ba/F3 EML4-ALK v1 I1171N-D1203N IC50 over Ba/F3 ETV6-TRKB IC50: Table 6 bins. The procedure, abridged:
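Ba/F3 cells made IL-3-independent by retroviral EML4-ALK v1 I1171N/D1203N and selected with puromycin, then treated with 3-fold compound dilutions for 72 h. Viability by CellTiter-Glo luminescence; IC50 from four-parameter logistic fit.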

In the next test the target is TRKB-wt (Homo sapiens (Human), UniProt Q16620). Put plainly: Biochemical kinase assay, TRKB-wt. To be noted: apparent inhibitory constant, kinase domain, Morrison equation; read-out: TRKB-wt Ki^app. The method, then: as §1, §2
Another test deals with Ba/F3 EML4-ALK v1 I1171N (Homo sapiens (Human), UniProt Q9HC35+Q9UM73, I1171N). As to the kind of experiment: Ba/F3 cell proliferation assay, EML4-ALK v1 I1171N. The test is classed as cell-based. The procedure, abridged: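 Ba/F3 cells stably transformed with retroviral EML4-ALK v1 I1171N, selected by IL-3 withdrawal and puromycin, grown IL-3-free. Compounds added as 3-fold dilution series, 72 h incubation; viability by CellTiter-Glo luminescence. IC50 from percent inhibition by four-parameter logistic fit, binned A/B/C.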

The source of these data is US20250326769A1, “HETEROAROMATIC MACROCYCLIC ETHER CHEMOTHERAPEUTIC AGENTS” (Nuvalent, Inc., priority 2022, published 2025).

In general, IC50 refers to the concentration that inhibits the measured activity by half.

Sequence of Ba/F3 ETV6-TRKB (Q16620 32-822 limits assumed, change not shown): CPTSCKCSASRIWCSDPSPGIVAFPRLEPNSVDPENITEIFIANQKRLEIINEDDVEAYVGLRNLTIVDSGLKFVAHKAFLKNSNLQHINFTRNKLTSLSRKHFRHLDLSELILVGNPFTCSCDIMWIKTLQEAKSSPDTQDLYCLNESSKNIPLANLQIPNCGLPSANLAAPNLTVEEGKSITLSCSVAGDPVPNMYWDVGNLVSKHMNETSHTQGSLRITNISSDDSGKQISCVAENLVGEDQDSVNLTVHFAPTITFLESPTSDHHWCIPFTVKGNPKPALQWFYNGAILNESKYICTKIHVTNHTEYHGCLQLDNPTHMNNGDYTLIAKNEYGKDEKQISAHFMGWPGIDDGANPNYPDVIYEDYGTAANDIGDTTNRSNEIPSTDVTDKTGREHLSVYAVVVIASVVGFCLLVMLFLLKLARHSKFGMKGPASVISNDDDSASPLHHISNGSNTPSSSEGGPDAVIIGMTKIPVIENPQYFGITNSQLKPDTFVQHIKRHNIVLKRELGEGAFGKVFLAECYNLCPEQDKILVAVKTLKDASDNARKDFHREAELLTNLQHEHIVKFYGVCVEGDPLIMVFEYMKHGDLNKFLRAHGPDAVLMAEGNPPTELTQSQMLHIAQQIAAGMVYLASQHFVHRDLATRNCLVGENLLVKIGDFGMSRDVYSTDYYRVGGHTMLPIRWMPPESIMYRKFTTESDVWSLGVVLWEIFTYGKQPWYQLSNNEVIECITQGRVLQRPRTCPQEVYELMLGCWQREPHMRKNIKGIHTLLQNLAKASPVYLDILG
Sequence of Ba/F3 EML4-ALK v1 I1171N/D1203N (Q9UM73 other isoform, or with tags, fused parts or gaps I1171N/D1203N): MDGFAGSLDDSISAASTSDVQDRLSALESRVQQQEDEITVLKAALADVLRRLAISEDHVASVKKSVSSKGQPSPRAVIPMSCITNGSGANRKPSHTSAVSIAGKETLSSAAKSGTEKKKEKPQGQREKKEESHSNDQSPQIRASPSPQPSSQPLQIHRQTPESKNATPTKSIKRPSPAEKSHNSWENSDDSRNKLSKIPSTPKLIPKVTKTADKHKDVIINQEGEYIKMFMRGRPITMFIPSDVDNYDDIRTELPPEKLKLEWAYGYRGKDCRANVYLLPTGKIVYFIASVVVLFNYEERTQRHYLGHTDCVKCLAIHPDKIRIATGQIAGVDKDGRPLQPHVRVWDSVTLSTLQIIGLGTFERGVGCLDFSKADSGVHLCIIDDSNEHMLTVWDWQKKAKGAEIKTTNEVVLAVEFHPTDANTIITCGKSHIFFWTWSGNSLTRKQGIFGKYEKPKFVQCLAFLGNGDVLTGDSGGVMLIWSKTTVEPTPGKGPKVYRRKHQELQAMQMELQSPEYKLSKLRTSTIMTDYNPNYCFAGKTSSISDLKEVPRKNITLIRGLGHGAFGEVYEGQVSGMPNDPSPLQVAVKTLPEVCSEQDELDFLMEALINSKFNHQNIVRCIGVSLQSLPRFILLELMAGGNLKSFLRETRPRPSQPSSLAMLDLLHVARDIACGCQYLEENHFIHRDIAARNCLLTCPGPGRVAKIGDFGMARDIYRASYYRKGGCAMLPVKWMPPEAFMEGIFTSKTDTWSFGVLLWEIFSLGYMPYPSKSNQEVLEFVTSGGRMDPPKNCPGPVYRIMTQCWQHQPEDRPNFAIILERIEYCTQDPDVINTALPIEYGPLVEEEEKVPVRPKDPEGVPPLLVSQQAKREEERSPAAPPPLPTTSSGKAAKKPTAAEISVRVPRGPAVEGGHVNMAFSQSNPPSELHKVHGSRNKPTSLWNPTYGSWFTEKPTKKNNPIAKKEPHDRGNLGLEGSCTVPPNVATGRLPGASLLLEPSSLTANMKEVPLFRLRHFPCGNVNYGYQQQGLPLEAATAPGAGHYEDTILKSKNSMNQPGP
Sequence of ALK I1171N/D1203N (Q9UM73 1116-1392 I1171N/D1203N): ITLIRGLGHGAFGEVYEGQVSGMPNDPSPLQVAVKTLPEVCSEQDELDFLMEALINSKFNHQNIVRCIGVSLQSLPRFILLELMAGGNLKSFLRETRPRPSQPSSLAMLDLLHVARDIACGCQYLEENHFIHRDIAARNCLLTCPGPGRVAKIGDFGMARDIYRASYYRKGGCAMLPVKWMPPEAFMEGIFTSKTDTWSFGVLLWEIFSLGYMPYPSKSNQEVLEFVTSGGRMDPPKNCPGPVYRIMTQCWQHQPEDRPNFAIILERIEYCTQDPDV
Sequence of TRKB-wt (Q16620 538-807): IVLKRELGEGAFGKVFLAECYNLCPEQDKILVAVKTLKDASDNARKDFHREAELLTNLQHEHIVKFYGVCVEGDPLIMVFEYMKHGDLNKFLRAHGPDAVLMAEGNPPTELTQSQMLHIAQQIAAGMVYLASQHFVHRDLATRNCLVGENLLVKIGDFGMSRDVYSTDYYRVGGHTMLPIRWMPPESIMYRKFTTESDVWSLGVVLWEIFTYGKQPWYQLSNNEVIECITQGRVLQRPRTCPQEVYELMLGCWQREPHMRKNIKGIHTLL
Sequence of Ba/F3 EML4-ALK v1 I1171N (Q9UM73 other isoform, or with tags, fused parts or gaps I1171N): as the sequence (Q9UM73 other isoform, or with tags, fused parts or gaps I1171N/D1203N) above, with N642D counted along it

As for `C[C@H]1Oc2cc(cnc2N)-c2c(c(S(C)(=O)=O)nn2CC2CC2)Cc2cn(C)nc2-c2ccc(F)cc21` [Example 2, (R)-3-(cyclopropylmethyl)-16-fluoro-5-mesyl-10-methyl-19-methyl-20-oxa-3,4,10,11,23-pentaazapentacyclo[19.3.1.0^2,6.0^8,12.0^13,18]pentacosa-1(24),2(6),4,8,11,13,15,17,21(25),22-decaen-22-ylamine], the Ki on ALK I1171N/D1203N was 50 to 500 nM; on TRKB-wt it was at least 500 nM. Further, the figures for the half-inhibitory concentration (IC50) (at Ba/F3 ETV6-TRKB; in test [1]) were over 500 nM and 50 to 500 nM, respectively. Also, the “ETV6-TRKB / EML4-ALK v1 I1171N/D1203N” value in test [1] is recorded as “C (bin C for moderate selectivity, ratio≥1 but<10)”.

Consider `C[C@H]1Oc2cc(cnc2N)-c2c(c(C(=O)N3CCCC3)nn2CC2CC2)Cc2cn(C)nc2-c2ccc(F)cc21` [Example 11, {(R)-22-amino-3-(cyclopropylmethyl)-16-fluoro-10-methyl-19-methyl-20-oxa-3,4,10,11,23-pentaazapentacyclo[19.3.1.0^2,^6.0^8,^12.0^13,^18]pentacosa-1(24),2(6),4,8,11,13,15,17,21(25),22-decaen-5-yl}(1-pyrrolidinyl)methanone], for which the Ki is under 50 nM at ALK I1171N/D1203N and 50 to 500 nM on TRKB-wt. Moreover, the results for the IC50 (on Ba/F3 ETV6-TRKB; in test [1]) were over 500 nM and 50 to 500 nM, respectively. In addition, the “ETV6-TRKB / EML4-ALK v1 I1171N/D1203N” value in test [1] is “B (bin B for high selectivity, ratio≥10-fold but<30)”.

Take `C[C@H]1Oc2cc(cnc2N)-c2c(c(C(=O)N3CCC(F)(F)C3)nn2CC2CC2)Cc2cn(C)nc2-c2ccc(F)cc21` [Example 12, {(R)-22-amino-3-(cyclopropylmethyl)-16-fluoro-10-methyl-19-methyl-20-oxa-3,4,10,11,23-pentaazapentacyclo[19.3.1.0^2,^6.0^8,^12.013,18]pentacosa-1(24),2(6),4,8,11,13,15,17,21(25),22-decaen-5-yl}(3,3-difluoro-1-pyrrolidinyl)methanone]: the Ki was under 50 nM at ALK I1171N/D1203N and at least 500 nM at TRKB-wt. Moreover, the values for the IC50 (at Ba/F3 ETV6-TRKB; in test [1]) were over 500 nM and 50 to 500 nM, respectively. The “ETV6-TRKB / EML4-ALK v1 I1171N/D1203N” value in test [1] was “C (bin C for moderate selectivity, ratio≥1 but<10)”.

For `C[C@H]1Oc2cc(cnc2N)-c2c(c(C(=O)N3CC(F)(F)C3)nn2CC2CC2)Cc2cn(C)nc2-c2ccc(F)cc21` [Example 13, {(R)-22-amino-3-(cyclopropylmethyl)-16-fluoro-10-methyl-19-methyl-20-oxa-3,4,10,11,23-pentaazapentacyclo[19.3.1.0^2,^6.0^8,^12.0^13,^18]pentacosa-1(24),2(6),4,8,11,13,15, 17,21(25),22-decaen-5-yl}(3,3-difluoro-1-azetidinyl)methanone], the values for the Ki at ALK I1171N/D1203N and on TRKB-wt were under 50 nM and 50 to 500 nM, respectively. Moreover, the results for the IC50 (at Ba/F3 ETV6-TRKB; in test [1]) were over 500 nM and 50 to 500 nM, respectively. The “ETV6-TRKB / EML4-ALK v1 I1171N/D1203N” value in test [1] was “C (bin C for moderate selectivity, ratio≥1 but<10)”.

As for `CC(=O)c1nn(CC2CC2)c2c1Cc1cn(C)nc1-c1ccc(F)cc1[C@@H](C)Oc1cc-2cnc1N` [Example 16, 1-[(19R)-22-amino-3-(cyclopropylmethyl)-16-fluoro-10,19-dimethyl-20-oxa-3.4.10,11,23-pentaazapentacyclo[19.3.1.0^2,6.0^8,12.0^13,18]pentacosa-1(24),2(6),4,8,11.13,15,17,21(25),22-decaen-5-yl]ethan-1-one], the Ki on ALK I1171N/D1203N was 50 to 500 nM; on TRKB-wt, at least 500 nM. For the same compound, the values for the IC50 (on Ba/F3 ETV6-TRKB; in test [1]) were over 500 nM and 50 to 500 nM, respectively. In test [1], the “ETV6-TRKB / EML4-ALK v1 I1171N/D1203N” value was “C (bin C for moderate selectivity, ratio≥1 but<10)”.

With `C[C@H]1Oc2cc(cnc2N)-c2c(c([S+](C)[O-])nn2CC2CC2)Cc2cn(C)nc2-c2ccc(F)cc21` (stereo partly drawn) [Example 17, (R)-3-(cyclopropylmethyl)-16-fluoro-10-methyl-19-methyl-5-(methylsulfinyl)-20-oxa-3,4,10,11,23-pentaazapentacyclo[19.3.1.0^2,^6.0^8,^12.0^13,^18]pentacosa-1(24),2(6),4,8,11,13,15,17,21(25),22-decaen-22-ylamine], the Ki at ALK I1171N/D1203N is under 50 nM; at TRKB-wt, 50 to 500 nM. Also, the half-inhibitory concentration (IC50) on Ba/F3 ETV6-TRKB was over 500 nM; in test [1] it was 50 to 500 nM. Besides, the “ETV6-TRKB / EML4-ALK v1 I1171N/D1203N” value in test [1] is “C (bin C for moderate selectivity, ratio≥1 but<10)”.

Consider `Cc1cc2n(n1)-c1ccc(F)cc1[C@@H](C)Oc1cc(cnc1N)-c1c(C#N)nn(C)c1C2=O` [Example 18, (R)-22-amino-16-fluoro-5-methyl-10,19-dimethyl-7-oxo-20-oxa-4,5,11,12,23-pentaazapentacyclo[19.3.1.0^2,^6.0^8,^12.0^13,^18]pentacosa-1(24),2(6),3,8,10,13,15,17,21(25),22-decaene-3-carbonitrile], for which, at ALK I1171N/D1203N, the Ki was under 50 nM. Also, the concentration for half-maximal inhibition (IC50) on Ba/F3 ETV6-TRKB was over 500 nM. Also, in test [1], the IC50 lay in the range of 50 to 500 nM; the “ETV6-TRKB / EML4-ALK v1 I1171N/D1203N” value is “C (bin C for moderate selectivity, ratio≥1 but<10)”; the “Selectivity for Ba/F3 EML4-ALK v1 I1171N-D1203N IC50 over Ba/F3 ETV6-TRKB IC50” value is given as “CC (bin CC for the selectivity with the ratio≥5 but<10)”. Besides, the Ki on TRKB-wt was in the range of 50 to 500 nM.

On to `Cc1cc2n(n1)-c1ccc(F)cc1[C@@H](C)Oc1cc(cnc1N)-c1c(nn(C)c1C#N)C2=O` [Example 19, (R)-22-amino-16-fluoro-4-methyl-10,19-dimethyl-7-oxo-20-oxa-4,5,11,12,23-pentaazapentacyclo[19.3.1.0^2,^6.0^8,^12.0^13,^18]pentacosa-1(24),2,5,8, 10,13,15,17,21(25),22-decaene-3-carbonitrile], for which the Ki at ALK I1171N/D1203N and at TRKB-wt was under 50 nM each time. The 50% inhibitory concentration (IC50) is 50 to 500 nM on Ba/F3 ETV6-TRKB and 0.1 to 50 nM in test [1]. Further, in test [1], the “ETV6-TRKB / EML4-ALK v1 I1171N/D1203N” value is “B (bin B for high selectivity, ratio≥10-fold but<30)”.

For `C[C@H]1Oc2cc(cnc2N)-c2c(c(C(N)=O)nn2C2CCC2)Cc2cn(C)nc2-c2ccc(F)cc21` [Example 30, (R)-22-amino-3-cyclobutyl-16-fluoro-10-methyl-19-methyl-20-oxa-3,4,10,11,23-pentaazapentacyclo[19.3.1.0^2,^6.0^8,^12.0^13,^18] pentacosa-1(24),2(6),4,8,11,13,15,17,21(25),22-decaene-5-carboxamide], the Ki at ALK I1171N/D1203N is under 50 nM; on TRKB-wt it was 50 to 500 nM. The IC50 at Ba/F3 ETV6-TRKB is over 500 nM; in test [1] it was 50 to 500 nM. Further, the “ETV6-TRKB / EML4-ALK v1 I1171N/D1203N” value in test [1] is on record as “B (bin B for high selectivity, ratio≥10-fold but<30)”.

As to `CCn1ncc2c1-c1cnc(N)c(c1)O[C@H](C)c1cc(F)ccc1-c1ncccc1C2=O` [Example 76, (R)-23-amino-3-ethyl-17-fluoro-20-methyl-21-oxa-3,4,12,24-tetraazapentacyclo[20.3.1.0^2,^6.0^8,^13.0^14,^19]hexacosa-1(25),2(6),4,8(13),9,11,14,16,18,22(26),23-undecaen-7-one], the Ki at ALK I1171N/D1203N is under 50 nM. Also, the 50% inhibitory concentration (IC50) on Ba/F3 ETV6-TRKB was over 500 nM. In test [1], the IC50 was in the range of 50 to 500 nM; the “ETV6-TRKB / EML4-ALK v1 I1171N/D1203N” value was “C (bin C for moderate selectivity, ratio≥1 but<10)”; the “Selectivity for Ba/F3 EML4-ALK v1 I1171N-D1203N IC50 over Ba/F3 ETV6-TRKB IC50” value was “DD (bin DD for the selectivity with the ratio≥1 but<5)”. The same compound yielded an IC50 against Ba/F3 EML4-ALK v1 I1171N (Ba/F3 stable cells, 72 hours, CellTiter-Glo) of over 500 nM. The “ETV6-TRKB / EML4-ALK v1 I1171N” value on Ba/F3 EML4-ALK v1 I1171N (TRKB selectivity, ratio of Ba/F3 IC50 values) is on record as “C (bin C for moderate selectivity, ratio≥1 but<10)”.
